# Results published in patent US20060123501A1, “Method for treating inflammatory disorders” (priority 2004, published 2006).
# How the values were obtained:
# [1] = test system: cIAP2−/− and cIAP2+/+ mice; assay: Serum cytokine levels (ELISA) after i.p. LPS; format: in vivo, mouse
# Procedure: LPS directly activates macrophages to produce large amounts of IL-1β and TNF-α and to mediate a cascade of events leading to endotoxic shock. We therefore assayed the levels of these pro-inflammatory cytokines in serum from cIAP2^−/− mice treated with LPS (35 mg LPS/kg). In cIAP2^−/− mice, IL-1β serum levels peaked at 4 h and then markedly dropped off (Table 4). This was in contrast to littermate controls where IL-1β levels decreased much later. […] As a further study, we also investigated the serum concentrations of IL-12 (Table 4) after an injection of LPS (35 mg/kg), yet again, we observed an attenuation of a macrophage cytokine, IL-12, by the 6 hour time point. Nevertheless, cIAP2^−/− mice did display early outward signs of sepsis, such as eye exudates and ruffled fur; however, their condition quickly ameliorated, corresponding to the observed waning of the LPS-induced inflammatory cytokines seen within the cIAP2^−/− mice.
# Adult 4-6 week old mice (n=3), cIAP2^−/− and littermate control mice, were injected i.p. with a LD100 dose of LPS (35 mg LPS/kg). At the appropriate times mice were anesthetized with phenobarbital and killed by cervical dislocation. The plasma was then collected from these animals and used to determine serum concentrations of IL-1β, TNF-α and IL-12 via an ELISA kit (R & D Systems).
# splenic B cells = assay: Proliferation of splenic B cells cultured with LPS; format: cell-based, mouse; conditions: cIAP2−/− splenic B cells; LPS 0.1 to 100 μg/ml
# Procedure: Spleen- and peritoneal-derived macrophage cell count numbers are shown (A) for cIAP2^−/−, cIAP2^+/− and cIAP2^+/+ mice (n=10). Both cIAP2^−/− and littermate control-derived macrophages stained for the LPS binding surface receptor CD14 (B). The proliferation of B cells for cIAP2^−/− mice and littermate controls of cIAP2^+/+ after culturing with the indicated range of LPS doses (n=6) (C). Cultured macrophages from cIAP2^−/− or littermate control cIAP2^+/+ mice were exposed to LPS for 10 h and subsequently IL-1β (D) or TNF-α (E) levels were measured by ELISA (n=6). Additionally, macrophages were exposed to the indicated range of LPS doses for 24 h and IL-1β (F) or TNF-α (G) levels were determined (n=6). Results are mean±s.d. in triplicate per mouse, P<0.01
# This dysfunction may be correlated to a reduced initial number of macrophages, to a block in the LPS-induced signaling pathway, or to an increased apoptotic susceptibility of the cIAP2^−/− macrophages. […] The cIAP2^−/− mice and wild-type macrophages also stained similarly for the LPS-binding receptor, CD14 (FIG. 4B).
# [2] = test system: liver-derived macrophages; assay: Liver-derived macrophage cell counts in liver sections after i.p. LPS; format: in vivo, mouse
# Procedure: Liver tissue derived from cIAP2^−/− (upper panels) and cIAP2^+/+ mice (lower panels) pre-treated with LPS (35 mg/kg) for 2 hours (a) or 6 hours (b). cell counts (n=5, average of 3 sections (average of 5 fields per section) per mouse, P<0.01) are shown within each anti-F4/80 FITC conjugated antibody stained panel along with the standard deviation.
# To determine the apoptotic sensitivity of cIAP2^−/− macrophages within an LPS-induced pro-inflammatory environment, the peritoneal macrophage cell numbers before and during an endotoxin-elicited response were assessed by trypan blue exclusion, Diff Quik™ staining kit and flow cytometry (using the macrophage marker PE conjugated α-F4/80 antibody). […] However, total lymphocyte cell count numbers (B and T cells) were comparatively unaffected in both animal types (FIG. 5D). In addition, at 5 hours post LPS injection both the peritoneal and splenic macrophages from cIAP2^−/− mice stained ˜100% positive for Annexin V (Table 5). Therefore, peritoneal and splenic macrophages from cIAP2^−/− mice undergoing LPS-induced endotoxic shock were highly sensitive to apoptotic stimuli compared to control littermates, in vivo. Liver-derived macrophages are key mediators of LPS-induced endotoxic shock (7, 12). Therefore, to further investigate the survival status of macrophages within LPS treated cIAP2^−/− mice we examined cell count levels of liver-derived macrophages within liver sections. Macrophage cell count numbers within both cIAP2^−/− and control mice were similar at 2 hours post-IP LPS treatment (FIG. 6A), 235+/−35 and 271+/−29, respectively (n=5, average of 3 sections (average of 5 fields per section) per mouse, P<0.01). However, at the 6 hour time point (FIG. 6B), there was a precipitous drop of liver-derived macrophages of the cIAP2^−/− mice, 21+/−12 versus that of the littermates, 148+/−19 (n=5, average of 3 sections (average of 5 fields per section) per mouse, P<0.01). Therefore, like peritoneal and splenic macrophages, the liver-derived macrophages from cIAP2^−/− are highly sensitive to LPS in vivo.
# [3] = cIAP2+/+ mice, 2 hours after i.p. LPS 35 mg/kg
# [4] = cIAP2+/+ mice, 6 hours after i.p. LPS 35 mg/kg
# [5] = cIAP2+/+ mice, 10 hours after i.p. LPS 35 mg/kg
# [6] = cIAP2−/− mice, 2 hours after i.p. LPS 35 mg/kg
# [7] = cIAP2−/− mice, 6 hours after i.p. LPS 35 mg/kg
# [8] = cIAP2−/− mice, 10 hours after i.p. LPS 35 mg/kg
substance,measurement,setting,value
lipopolysaccharide [LPS],IL-1β Serum Levels,[1]; [3],476 ± 24 pg/mL
same,IL-12 Serum Leves,[1]; [3],210 ± 17 pg/mL
same,TNFα Serum Levels,[1]; [3],1623 ± 348 pg/mL
same,IL-1β Serum Levels,[1]; [4],993 ± 158 pg/mL
same,IL-12 Serum Leves,[1]; [4],260 ± 31 pg/mL
same,TNFα Serum Levels,[1]; [4],502 ± 56 pg/mL
same,IL-1β Serum Levels,[1]; [5],669 ± 48 pg/mL
same,TNFα Serum Levels,[1]; [5],371 ± 64 pg/mL
same,IL-1β Serum Levels,[1]; [6],314 ± 153 pg/mL
same,IL-12 Serum Leves,[1]; [6],152 ± 24 pg/mL
same,TNFα Serum Levels,[1]; [6],1589 ± 413 pg/mL
same,IL-1β Serum Levels,[1]; [7],476 ± 78 pg/mL
same,IL-12 Serum Leves,[1]; [7],11 ± 5 pg/mL
same,TNFα Serum Levels,[1]; [7],202 ± 89 pg/mL
same,IL-1β Serum Levels,[1]; [8],162 ± 21 pg/mL
same,TNFα Serum Levels,[1]; [8],8 ± 7 pg/mL
same,Time of peak IL-1β serum levels,"[1]; cIAP2−/− mice, LPS 35 mg/kg",4 h
same,TNF-α serum levels,"[1]; cIAP2−/− mice, by 10 hours, LPS 35 mg/kg",approximately 10 pg/ml
same,"TNF-α serum levels (stabilized, maintained until death)","[1]; littermate controls, LPS 35 mg/kg",approximately 400 pg/ml
same,B cell proliferation in response to LPS,splenic B cells,proliferated normally
same,Liver macrophage cell count,"[2]; cIAP2−/− mice, 2 hours post-IP LPS (35 mg/kg)",235+/−35
same,Liver macrophage cell count,"[2]; cIAP2−/− mice, 6 hour time point post LPS (35 mg/kg)",21+/−12
same,Liver macrophage cell count,"[2]; control mice, 2 hours post-IP LPS (35 mg/kg)",271+/−29
same,Liver macrophage cell count,"[2]; littermates, 6 hour time point post LPS (35 mg/kg)",148+/−19
